Test results taken from the Kinase Knowledgebase extract (Sharma et al. 2016).

What follows are compounds tested against MAPK14 (human) (UniProt Q16539) (assay: Inhibition of LPS Stimulated TNF Production by U937 Cells). Conditions: not given.
Sequence of MAPK14 (human) (Q16539 whole entry, looked up): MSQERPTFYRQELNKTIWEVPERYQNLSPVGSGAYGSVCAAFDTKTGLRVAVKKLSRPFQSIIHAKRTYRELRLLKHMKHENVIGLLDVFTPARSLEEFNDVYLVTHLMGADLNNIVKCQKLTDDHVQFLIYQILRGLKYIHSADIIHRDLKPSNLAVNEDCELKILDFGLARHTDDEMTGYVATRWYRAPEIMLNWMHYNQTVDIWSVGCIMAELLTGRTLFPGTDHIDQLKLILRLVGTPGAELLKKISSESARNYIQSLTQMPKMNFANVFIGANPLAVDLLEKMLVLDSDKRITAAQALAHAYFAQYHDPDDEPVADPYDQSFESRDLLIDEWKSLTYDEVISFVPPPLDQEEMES

IC50 [nM]	SMILES
578	Cc1n[nH]c(-c2ccccc2)c1-c1ccncc1
> 1000	CNC(=O)CC[C@H](NS(=O)(=O)Cc1ccccc1)c1[nH]nc(-c2ccc(F)cc2)c1-c1ccncc1
2780	O=S(=O)(NCc1[nH]nc(-c2ccc(F)cc2)c1-c1ccncc1)c1ccc(F)cc1
540	CC(=O)OC(C)(C)C(=O)NCc1[nH]nc(-c2ccc(F)cc2)c1-c1ccncc1
77	Fc1ccc(-c2[nH]nc(-c3ccccc3)c2-c2ccncc2)cc1
> 1000	O=C(N[C@H](Cc1ccccc1)c1[nH]nc(-c2ccc(F)cc2)c1-c1ccncc1)C1CC1
660	C[C@@H](NC(=O)c1ccccc1I)c1[nH]nc(-c2ccc(F)cc2)c1-c1ccncc1
650	CC(C)C(=O)NCc1[nH]nc(-c2ccc(F)cc2)c1-c1ccncc1
166	Clc1ccc(-c2n[nH]cc2-c2ccnc(NCc3ccccn3)c2)cc1
4850	COC(=O)c1ccccc1S(=O)(=O)NCc1[nH]nc(-c2ccc(F)cc2)c1-c1ccncc1
920	CN(C)CCn1cc(-c2ccnc(NCc3ccc(F)cc3)c2)c(-c2ccc(F)cc2)n1
660	C=CCOC(=O)N[C@H](C)c1[nH]nc(-c2ccc(F)cc2)c1-c1ccncc1
198	OCCn1cc(-c2ccncc2)c(-c2ccc(F)cc2)n1

Second part, the compound before the results:

SMILES	IC50 [nM]
N#Cc1cc(-c2c[nH]nc2-c2ccc(F)cc2)ccn1	298
Cn1cc(-c2ccnc(F)c2)c(-c2ccc(F)cc2)n1	456
Cc1cnccc1-c1cn(C)nc1-c1ccc(F)cc1	757
Cc1ccc(S(=O)(=O)NCc2[nH]nc(-c3ccc(F)cc3)c2-c2ccncc2)cc1	1290
CN(C)CCn1cc(-c2ccnc(F)c2)c(-c2ccc(F)cc2)n1	4210
O=C(NCc1[nH]nc(-c2ccc(F)cc2)c1-c1ccncc1)[C@H]1CCCN1	> 1000
C[C@@H](NS(=O)(=O)Cc1ccccc1)c1[nH]nc(-c2ccc(F)cc2)c1-c1ccncc1	50
CC(C)=CC(=O)N[C@H](Cc1ccccc1)c1[nH]nc(-c2ccc(F)cc2)c1-c1ccncc1	> 1000
Cc1[nH]nc(-c2ccc(Cl)cc2)c1-c1ccncc1	201
CN(C(=O)N[C@@H](Cc1ccccc1)c1[nH]nc(-c2ccc(F)cc2)c1-c1ccncc1)c1ccccc1	< 1000
Cc1c(-c2ccncc2)c(-c2ccc(F)cc2)nn1CC(=O)NCCc1ccc(Oc2ccccc2)cc1	780
COc1ccccc1C(=O)NCc1[nH]nc(-c2ccc(F)cc2)c1-c1ccncc1	4470
C[C@@H](NS(C)(=O)=O)c1[nH]nc(-c2ccc(F)cc2)c1-c1ccncc1	440
Cc1ccc(-c2[nH]nc(C)c2-c2ccncc2)c(C)c1	1050
CNC(=O)N[C@H](Cc1ccccc1)c1[nH]nc(-c2ccc(F)cc2)c1-c1ccncc1	> 1000

Same assay, conditions: concentration not given here

inhibition [%]	SMILES
25	C[C@@H](NC(=O)c1cccc(C(F)(F)F)c1)c1[nH]nc(-c2ccc(F)cc2)c1-c1ccncc1
75	C[C@@H](NC(=O)c1ccccc1F)c1[nH]nc(-c2ccc(F)cc2)c1-c1ccncc1
47	CC(C)NC(=O)N[C@@H](C)c1[nH]nc(-c2ccc(F)cc2)c1-c1ccncc1
15	O=[N+]([O-])c1cc(S(=O)(=O)NCc2[nH]nc(-c3ccc(F)cc3)c2-c2ccncc2)ccc1Cl
21	O=S(=O)(NCCc1[nH]nc(-c2ccc(F)cc2)c1-c1ccncc1)c1cccc(Cl)c1Cl
29	Cc1cccc(C(=O)N[C@@H](C)c2[nH]nc(-c3ccc(F)cc3)c2-c2ccncc2)c1
17	CC(=O)OC(C)(C)C(=O)N[C@H](C)c1[nH]nc(-c2ccc(F)cc2)c1-c1ccncc1
65	C[C@@H](NS(=O)(=O)C[C@]12CC[C@@H](CC1=O)C2(C)C)c1[nH]nc(-c2ccc(F)cc2)c1-c1ccncc1
37	C[C@@H](NC(=O)c1cccc(C#N)c1)c1[nH]nc(-c2ccc(F)cc2)c1-c1ccncc1
28	O=C(NCc1[nH]nc(-c2ccc(F)cc2)c1-c1ccncc1)[C@@H]1C[C@@H]1c1ccccc1
24	O=C(NCc1[nH]nc(-c2ccc(F)cc2)c1-c1ccncc1)c1cccc(Br)c1
9	O=C(NCCc1ccccc1)NCc1[nH]nc(-c2ccc(F)cc2)c1-c1ccncc1
22	O=C(NCc1[nH]nc(-c2ccc(F)cc2)c1-c1ccncc1)c1cccc(OC(F)(F)F)c1
48	C[C@H](NC(=O)c1ccccc1Cl)c1[nH]nc(-c2ccc(F)cc2)c1-c1ccncc1
48	C[C@@H](NC(=O)c1cc(F)cc(F)c1)c1[nH]nc(-c2ccc(F)cc2)c1-c1ccncc1
23	COc1ccccc1C(=O)N[C@H](C)c1[nH]nc(-c2ccc(F)cc2)c1-c1ccncc1
28	COc1ccc(CC(=O)N[C@H](C)c2[nH]nc(-c3ccc(F)cc3)c2-c2ccncc2)cc1OC
52	COC(=O)NCc1[nH]nc(-c2ccc(F)cc2)c1-c1ccncc1
29	O=C(NCCc1[nH]nc(-c2ccc(F)cc2)c1-c1ccncc1)c1cc(F)cc(F)c1
13	O=C(NCc1[nH]nc(-c2ccc(F)cc2)c1-c1ccncc1)c1cccc(C(F)(F)F)c1
42	C=CCNC(=O)N[C@@H](C)c1[nH]nc(-c2ccc(F)cc2)c1-c1ccncc1
38	COc1cccc(C(=O)N[C@H](Cc2ccccc2)c2[nH]nc(-c3ccc(F)cc3)c2-c2ccncc2)c1
26	C[C@H](NC(=O)Nc1ccc(F)cc1)c1[nH]nc(-c2ccc(F)cc2)c1-c1ccncc1
18	CN(C)c1cccc2c(S(=O)(=O)N3CCC(c4[nH]nc(-c5ccc(F)cc5)c4-c4ccncc4)CC3)cccc12
55	O=C(NCc1[nH]nc(-c2ccc(F)cc2)c1-c1ccncc1)[C@@H]1CCCN1C(=O)OCC1c2ccccc2-c2ccccc21
18	C[C@H](NC(=O)c1ccc(F)c(F)c1F)c1[nH]nc(-c2ccc(F)cc2)c1-c1ccncc1
25	O=C(N[C@H](Cc1ccccc1)c1[nH]nc(-c2ccc(F)cc2)c1-c1ccncc1)c1ccncc1
64	CC(=O)Nc1ccc(S(=O)(=O)N[C@H](C)c2[nH]nc(-c3ccc(F)cc3)c2-c2ccncc2)cc1

More lines, now with the values behind:

SMILES	inhibition [%]
CNC(=O)CC[C@H](NC(=O)C1CC1)c1[nH]nc(-c2ccc(F)cc2)c1-c1ccncc1	28
C[C@H](NC(=O)c1c(F)cc(F)cc1F)c1[nH]nc(-c2ccc(F)cc2)c1-c1ccncc1	68
C[C@@H](NS(=O)(=O)c1ccc(Cl)cc1)c1[nH]nc(-c2ccc(F)cc2)c1-c1ccncc1	92
O=S(=O)(NCc1[nH]nc(-c2ccc(F)cc2)c1-c1ccncc1)c1ccc(S(=O)(=O)c2ccccc2)s1	64
Cc1ccc(S(=O)(=O)N2CCC(c3[nH]nc(-c4ccc(F)cc4)c3-c3ccncc3)CC2)cc1	14
Cc1ccc(S(=O)(=O)N[C@@H](Cc2ccccc2)C(=O)N[C@H](C)c2[nH]nc(-c3ccc(F)cc3)c2-c2ccncc2)cc1	10
O=C(NCc1[nH]nc(-c2ccc(F)cc2)c1-c1ccncc1)c1ccc([N+](=O)[O-])o1	100
C[C@@H](NC(=O)N[C@H](C)c1[nH]nc(-c2ccc(F)cc2)c1-c1ccncc1)c1ccccc1	28
C[C@@H](NS(=O)(=O)c1cccc2cccnc12)c1[nH]nc(-c2ccc(F)cc2)c1-c1ccncc1	71
O=S(=O)(NCCCc1[nH]nc(-c2ccc(F)cc2)c1-c1ccncc1)c1cccc(C(F)(F)F)c1	11
CNC(=O)NCc1[nH]nc(-c2ccc(F)cc2)c1-c1ccncc1	30
COc1ccc(CC(=O)N[C@H](C)c2[nH]nc(-c3ccc(F)cc3)c2-c2ccncc2)cc1	29
C[C@H](NC(=O)c1c(Cl)cccc1Cl)c1[nH]nc(-c2ccc(F)cc2)c1-c1ccncc1	35
CC(C)(C)C(=O)N[C@@H](Cc1ccccc1)c1[nH]nc(-c2ccc(F)cc2)c1-c1ccncc1	22
C[C@@H](NC(=O)c1c(Cl)cccc1Cl)c1[nH]nc(-c2ccc(F)cc2)c1-c1ccncc1	87
Cc1cccc(C)c1NC(=O)N[C@@H](C)c1[nH]nc(-c2ccc(F)cc2)c1-c1ccncc1	42
C[C@H](NC(=O)[C@@H]1CCCN1)c1[nH]nc(-c2ccc(F)cc2)c1-c1ccncc1	47
Cc1c(-c2ccncc2)c(-c2ccc(F)cc2)nn1CC(=O)NCCCN1CCN(C)CC1	30

SMILES	inhibition [%]
COCC(=O)N[C@H](C)c1[nH]nc(-c2ccc(F)cc2)c1-c1ccncc1	46
O=C(NCc1[nH]nc(-c2ccc(F)cc2)c1-c1ccncc1)Nc1ccc(OC(F)(F)F)cc1	11
CN(C)c1cccc2c(S(=O)(=O)NCCc3[nH]nc(-c4ccc(F)cc4)c3-c3ccncc3)cccc12	28
O=C(NCc1[nH]nc(-c2ccc(F)cc2)c1-c1ccncc1)c1ccc(Cl)nc1	15
CSc1cccc(NC(=O)NCc2[nH]nc(-c3ccc(F)cc3)c2-c2ccncc2)c1	12
C[C@@H](NS(=O)(=O)c1cccc2ccccc12)c1[nH]nc(-c2ccc(F)cc2)c1-c1ccncc1	58
O=C(O)c1ccccc1S(=O)(=O)NCCc1[nH]nc(-c2ccc(F)cc2)c1-c1ccncc1	40
C[C@H](NC(=O)c1c(F)cccc1C(F)(F)F)c1[nH]nc(-c2ccc(F)cc2)c1-c1ccncc1	59
COc1ccc(Cl)cc1S(=O)(=O)N[C@H](C)c1[nH]nc(-c2ccc(F)cc2)c1-c1ccncc1	87
O=S(=O)(NCc1[nH]nc(-c2ccc(F)cc2)c1-c1ccncc1)c1c(Cl)cccc1Cl	43
Cc1noc(C)c1C(=O)NCc1[nH]nc(-c2ccc(F)cc2)c1-c1ccncc1	28
CCS(=O)(=O)N[C@H](C)c1[nH]nc(-c2ccc(F)cc2)c1-c1ccncc1	48
COc1ccc(OC)c(S(=O)(=O)N[C@@H](C)c2[nH]nc(-c3ccc(F)cc3)c2-c2ccncc2)c1	40
O=C(NCc1[nH]nc(-c2ccc(F)cc2)c1-c1ccncc1)c1cccc(Cl)c1	32
C[C@H](NS(=O)(=O)c1cccc(Br)c1)c1[nH]nc(-c2ccc(F)cc2)c1-c1ccncc1	79
C[C@@H](NS(=O)(=O)c1ccc(-c2ccccc2)cc1)c1[nH]nc(-c2ccc(F)cc2)c1-c1ccncc1	95
Cn1cnc(S(=O)(=O)N2CCC(c3[nH]nc(-c4ccc(F)cc4)c3-c3ccncc3)CC2)c1	28
